In PubChem BioAssay (NCI):
“And” between values parts separate entries of the source, which are not always exact repeats. Equal values may be shown once.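 Results reflect a 48-hour exposure of cells in 96-well plates to compound at five concentrations. At the GI50, growth is halved. At the TGI there is no net growth.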

Assays:
Assay in all cases: DTP human tumour cell line panel, 48 h
HCT-116 colon = test system: HCT-116 colon
LOX IMVI melanoma = test system: LOX IMVI melanoma
NCI-H226 lung = test system: NCI-H226 lung
NCI-H23 lung = test system: NCI-H23 lung
NCI-H460 lung = test system: NCI-H460 lung
OVCAR-3 ovarian = test system: OVCAR-3 ovarian
SK-OV-3 ovarian = test system: SK-OV-3 ovarian
UACC-62 melanoma = test system: UACC-62 melanoma

Row | SMILES | GI50 (HCT-116 colon) | TGI (HCT-116 colon) | GI50 (LOX IMVI melanoma) [µM] | TGI (LOX IMVI melanoma) | GI50 (NCI-H226 lung) [µM] | TGI (NCI-H226 lung) | GI50 (NCI-H23 lung) [µM] | TGI (NCI-H23 lung) | GI50 (NCI-H460 lung) [µM] | TGI (NCI-H460 lung) | GI50 (OVCAR-3 ovarian) [µM] | TGI (OVCAR-3 ovarian) | GI50 (SK-OV-3 ovarian) [µM] | TGI (SK-OV-3 ovarian) | GI50 (UACC-62 melanoma) [µM] | TGI (UACC-62 melanoma)
1 | Nc1ncnc2c1ncn2C1SC(CO)C(O)C1O (stereo unspecified) | 13.5 µM | 50.3 µM | 18.5 | 48.4 µM | 66.5 | > 100 µM | 35.1 | > 100 µM | 7.88 | 37.9 µM | 24.5 | 58.3 µM | 17.3 | 59.6 µM | > 100 | > 100 µM
2 | COc1cc2nc(NC3CCC3)nc(NC3CCN(C(C)C)CC3)c2cc1OC | 1.78 µM | 4.39 µM | 1.72 | 3.23 µM | 6 | 21.8 µM | 4.61 | 17.7 µM | 3.36 | 12.1 µM | 4.23 | 16.6 µM | 8 | 33.7 µM | 1.79 | 3.35 µM
3 | Cc1ccc(CNc2ccc(Cl)cc2NCc2ccc(C)c(O)c2)cc1O | 7.78 µM | 14.6 µM | 6.93 | 13.5 µM | 10 | 22.1 µM | 7.33 | 14.8 µM | 8 | 15.9 µM | 7.15 | 13.9 µM | 8.24 | 15.2 µM | 7.55 | 14.5 µM
4 | CC[C@@]12CC(C(=O)OC)=C3Nc4ccccc4[C@@]34CCN(C[C@H]3O[C@H]31)[C@@H]24 | 43.8 µM | > 100 µM | 34.8 | > 100 µM |  |  | 60.7 | > 100 µM | 46.6 | > 100 µM | 78.5 | > 100 µM |  |  | 17.7 | > 100 µM
5 | O=C(/C=C/c1ccccc1)c1ccccn1 | 6.9 µM and 15.4 µM | 19.4 µM and 30.3 µM |  | 23.9 µM and 34.8 µM |  | 37.5 µM and > 100 µM |  | 33.3 µM and 35.5 µM |  | 32.7 µM and 49.1 µM |  | 26.8 µM and 43.3 µM |  | 67 µM and > 100 µM |  | 36.8 µM and 41.4 µM
6 | CC1(C)CC[C@]2(C(=O)O)CC[C@]3(C)C(=CC[C@@H]4[C@@]5(C)C/C(=C/c6cccnc6)[C@H](O)C(C)(C)[C@@H]5CC[C@]43C)[C@@H]2C1 | 5.12 µM | 22.4 µM | 8.28 | 24.2 µM | 8.63 | 63 µM | 9.64 | > 100 µM | 4.14 | 26.4 µM | 7.08 | 25.6 µM | 19 | > 100 µM | 4.72 | 36.4 µM
7 | CCn1nc(C#Cc2c(C)ccc3c(Nc4ccc(Cl)cc4)nccc23)c2c(N)ncnc21 | 2.11 µM | > 100 µM | 1.81 | > 100 µM | 3.29 | 12.9 µM | 3.58 | > 100 µM | 4.22 | > 100 µM | 3.46 | > 100 µM | 4.38 | > 100 µM | 1.6 | 9.1 µM
8 | N=C(N)c1ccc(-c2ccc(-c3cccs3)s2)cc1F | 0.922 µM | 2.37 µM | 1.21 | 2.67 µM | 1.74 | 3.86 µM | 1.63 | 3.27 µM | 0.0436 | 1.05 µM | 1.47 | 3.09 µM |  |  | 1.62 | 3.34 µM
9 | O=C(c1ccco1)c1c(C(F)(F)F)n([O-])c2cc(Cl)c(Cl)cc2[n+]1=O | 0.269 µM | 0.921 µM | 0.169 | 0.52 µM | 1.15 | 3.01 µM | 0.545 | 1.36 µM | 0.121 | 0.361 µM | 0.0798 | 0.316 µM | 2.95 | 5.83 µM | 0.705 | 1.49 µM
10 | NC1=Nc2cc(OCCCCN3Cc4ccccc4C3)c(OCC3CC3)cc2C12CCCC2 | 1.2 µM | 2.56 µM | 1.69 | 3.09 µM | 1.32 | 3.48 µM | 2.15 | 5.36 µM | 1.67 | 3.21 µM | 1.49 | 3.16 µM | 1.89 | 3.9 µM | 1.69 | 3.11 µM
11 | O=c1[nH]c2c(ccc3cnccc32)c2c1CCC2 | 0.267 µM | > 45.8 µM | 0.282 | > 33.2 µM | 0.252 | 0.897 µM | 0.394 | > 20.3 µM | 0.376 | > 28.9 µM | 0.277 | 11.7 µM | 1.7 | > 100 µM | 0.214 | 0.622 µM
12 | COc1cnc2c(c1)C(=O)c1c-2n(CCCN2CCNCC2)c(=O)c2cc(F)ccc12 | 0.0919 µM | 1.31 µM | 0.18 | 1.32 µM | 0.15 | 0.507 µM | 0.233 | 1.47 µM | 0.0252 | 0.275 µM | 0.335 | 1.63 µM | 0.21 | 0.916 µM | 1.26 | 3.02 µM
13 | COc1ccc(-c2cc(-c3ccc(Cl)cc3)c(C#N)c(=O)n2CCCCCC(=O)Nc2ccccc2N)cc1 | 3.8 µM | > 100 µM | 1.64 | 3.45 µM | 4.58 | 78.9 µM | 6.04 | 27.3 µM | 3.42 | 27.2 µM | 5 | 25.3 µM | 5.36 | 38.4 µM | 2.4 | 8.56 µM
14 | CC(C)OC(=O)OCOP(=O)(OCOC(=O)OC(C)C)C1CCCN(O)C1=O (stereo unspecified) | 0.711 µM | > 100 µM | 2.3 | > 100 µM | 1.36 | > 100 µM | 8.47 | > 100 µM | 1.14 | > 100 µM | 1.47 | > 100 µM | 1.84 | > 100 µM | 0.704 | 3.29 µM
